Data published in patent US20140140925A1, “FOLATE-TARGETED DIAGNOSTICS AND TREATMENT” (priority 2009, published 2014).

Tests used:
[1] = Storage stability of EC20 drug substance and EC20 kits; type: physicochemical; details: −20° C. in amber glass bottles with butyl rubber stoppers
Method: EC20 kits were used for preparation of the ^99mTc-EC20 radioactive drug substance. Each kit contained a sterile, non-pyrogenic lyophilized mixture of 0.1 mg EC20, 80 mg sodium α-D-glucoheptonate, […] dihydrate, and sufficient sodium hydroxide or hydrochloric acid to adjust the pH to 6.8±0.2 prior to lyophilization. The lyophilized powder was sealed in a 5 mL vial under an argon atmosphere. The kits were then stored frozen at −20° C. until use or expiration (current shelf life is >2 years). The tin (II) chloride component is present to reduce the added ^99mTc-pertechnetate, while the sodium α-D-glucoheptonate component is present to stabilize the reduced ^99mTc prior to its final chelation to the EC20 compound.
EC20 Drug Substance is stored at −20° C. in amber glass bottles with butyl rubber stoppers.

folate receptors [2] = assay: 99mTc-EC20 SPECT uptake in target lesions (EC-FV-02); type: in vivo, human
Method: EC20 Patient Scanning Procedure. Following completion of screening procedures and confirmation of eligibility, all subjects received one intravenous injection of 0.5 mg of folic acid followed within 1-3 minutes by a 1-2 mL injection of 0.1 mg of EC20 labeled with 20-25 mCi of technetium-99m. Patients then underwent SPECT imaging (mid-thigh to head, posterior and anterior images) 1-2 hours following injection of EC20. Target lesions were selected by the radiologist according to RECIST (v1.0) criteria. Subsequently, nuclear medicine physicians assessed EC20 uptake for each target lesion visually, and classified the uptake as “positive” (marked/mild uptake) or “negative” (no uptake).
EC20 Lesion Scoring Procedure.
Forty-five protocol-eligible subjects with a total of 216 RECIST-defined target tumors (ie, “lesions”) were included in this retrospective analysis (table below). One-hundred and forty-five (145/216; 67%) of the lesions were considered EC20 “evaluable.” Of these, 111 (77%) had EC20 “positive” uptake.

folate receptors [3] = assay: EC20 scan of ovarian cancer patients at the interim analysis of Example 25; type: in vivo, human; details: at the time of the interim analysis of Example 25
Source text: Folate-receptor status in the patient is positive if one or more tumors in the patient have folate receptors capable of binding EC20 or if all tumors in the patient are capable of binding EC20. In one illustrative example, the folate-radioactive imaging agent conjugate is ^99mTc-EC20. At the time of the interim analysis described in Example 25, below, 91.3% of all ovarian cancer patients scanned with EC20 had been “positive” (indicated by having at least one tumor lesion/area that binds EC20) versus 8.7% of patients that were fully EC20 “negative”.
In this visual assessment embodiment (visual detection), lesions are evaluated visually to determine if the patient has a threshold level of functionally active folate receptors indicative of a clinical benefit to the patient. In one aspect, lesions (i.e., tumors) for analysis in each patient are selected by a radiologist according to RECIST (v1.0) criteria. Subsequently, a nuclear medicine physician (i.e. reader) assesses the uptake of the EC20 for each evaluable target lesion visually, and classifies the uptake as “EC20 positive” (marked uptake/mild uptake) or “EC20 negative” (no uptake). In one illustrative example the folate-radioactive imaging agent conjugate is ^99mTc-EC20.

[4] = of 145 evaluable lesions, visual SPECT assessment, 45 subjects

SMILES	time stable on storage [1]	subjects with EC20 uptake observed visually in at least 1 target lesion (folate receptors [2]; 45 subjects, EC-FV-02)	Negative (EC20−(neg)) lesions (folate receptors [2]; [4])	Positive (EC20+) lesions (folate receptors [2]; [4])	uptake in liver, spleen, bladder, and kidney (folate receptors [2]; organs whose target lesions were considered non-evaluable)	ovarian cancer patients scanned "positive" (at least one tumor lesion/area that binds EC20) (folate receptors [3])	patients fully EC20 "negative" (folate receptors [3])
Nc1nc2ncc(CNc3ccc(C(=O)N[C@H](CCC(=O)NC[C@H](N)C(=O)N[C@@H](CC(=O)O)C(=O)N[C@@H](CS)C(=O)O)C(=O)O)cc3)nc2c(=O)[nH]1 [EC20 Drug Substance, pteroyl-γ-D-glutamyl-β-L-2,3-diaminopropionyl-L-aspartyl-L-cysteine]	more than 24 months	–	–	–	–	–	–
Nc1nc2ncc(CNc3ccc(C(=O)N[C@H](CCC(=O)NC[C@@H]4[NH][99Tc]56(=[O])[S]C[C@@H](C(=O)O)[N]5C(=O)[C@H](CC(=O)O)[N]6C4=O)C(=O)O)cc3)nc2c(=O)[nH]1 [EC20]	–	Eighty-seven percent	34 (23%) N (%)	111 (77%) N (%)	inherently high uptake	91.3%	8.7%
